Measured values published in patent publication US20180110754A1, “CENICRIVIROC FOR THE TREATMENT OF FIBROSIS” (Tobira Therapeutics, Inc., priority 2015, published 2018).

Columns and labels:
[1] = Source text: Subjects with a history of HIV-2, hepatitis B and/or C, cirrhosis of the liver or any known active or chronic active liver disease were excluded from the study.
Most AEs were mild or moderate (Grade 1 or Grade 2). […] None of the Grade ≥3 AEs (preferred terms) were reported in more than 1 subject.

[2] = system: MCP-1, sCD14, hs-CRP, IL-6, D-dimer, fibrinogen; assay: Study 202: biomarkers of inflammation and immune function; assay type: in vivo, human; conditions: EFV 600 mg
Experimental: As an exploratory analysis, levels of inflammation biomarkers MCP-1, sCD14, high sensitivity C-reactive protein [hs-CRP], interleukin-6 [IL-6], D-dimer, and fibrinogen) were measured. Baseline values and changes from baseline at Week 24 and Week 48 of MCP-1, sCD14, hs-CRP, IL-6, D-dimer, and fibrinogen are summarized in Table 25.
The sCD14 samples were originally analyzed in 2 separate batches: Batch 1 included samples leading up to the Week 24 primary analysis and Batch 2 included Week 32 and Week 48 (end of study) samples. A repeat analysis of archived samples all analyzed in one batch was conducted for consistency in analysis across time points. To control for the effects of covariates, a linear mixed-model repeated-measures analysis was conducted on the changes from baseline in sCD14 (analysis dated September 2013).

O=C1Nc2ccc(Cl)cc2[C@@](C#CC2CC2)(C(F)(F)F)O1 [EFV, efavirenz, reference compound]
SAE: Suicidal ideation, n subjects ([1]; All CVC (N = 115), EFV (N = 28), through Week 48): 1
Grade 3 or 4 AE: Suicidal ideation, n subjects ([1]; All CVC (N = 115), EFV (N = 28; Grade 4 event)): 1
Deaths ([1]; EFV (N = 28)): 0 n
Grade 3 or 4 AE: Blood creatine phosphokinase increased, n subjects ([1]; human, in vivo, 48 week): 0
Grade 3 or 4 AE: Cardiac disorders, n subjects ([1]; human, in vivo, 48 week): 0
Grade 3 or 4 AE: Depression, n subjects ([1]; human, in vivo, 48 week): 1
Grade 3 or 4 AE: Ear and labyrinth disorders, n subjects ([1]; human, in vivo, 48 week): 1
Grade 3 or 4 AE: Investigations, n subjects ([1]; human, in vivo, 48 week): 1
Grade 3 or 4 AE: Palpitations, n subjects ([1]; human, in vivo, 48 week): 0
Grade 3 or 4 AE: Psychiatric disorders, n subjects ([1]; human, in vivo, 48 week): 1
Grade 3 or 4 AE: Stress, n subjects ([1]; human, in vivo, 48 week): 0
Grade 3 or 4 AE: Weight decreased, n subjects ([1]; human, in vivo, 48 week): 1
AE Abnormal dreams, n subjects ([1]; human, in vivo, 48 weeks): 6
AE Depression, n subjects ([1]; human, in vivo, 48 weeks): 3
AE Diarrhoea, n subjects ([1]; human, in vivo, 48 weeks): 3
AE Dizziness, n subjects ([1]; human, in vivo, 48 weeks): 8
AE Fatigue, n subjects ([1]; human, in vivo, 48 weeks): 1
AE Headache, n subjects ([1]; human, in vivo, 48 weeks): 0
AE Insomnia, n subjects ([1]; human, in vivo, 48 weeks): 4
AE Lymphadenopathy, n subjects ([1]; human, in vivo, 48 weeks): 4
AE Nasopharyngitis, n subjects ([1]; human, in vivo, 48 weeks): 1
AE Nausea, n subjects ([1]; human, in vivo, 48 weeks): 6
AE Rash, n subjects ([1]; human, in vivo, 48 weeks): 5
AE Syphilis, n subjects ([1]; human, in vivo, 48 weeks): 3
AE Upper respiratory tract infection, n subjects ([1]; human, in vivo, 48 weeks): 2
AE leading to discontinuation: Abnormal dreams, n subjects ([1]; human, in vivo, 48 weeks): 1
AE leading to discontinuation: Aggression, n subjects ([1]; human, in vivo, 48 weeks): 0
AE leading to discontinuation: Anxiety, n subjects ([1]; human, in vivo, 48 weeks): 1
AE leading to discontinuation: Depression, n subjects ([1]; human, in vivo, 48 weeks): 1
AE leading to discontinuation: Dermatitis allergic, n subjects ([1]; human, in vivo, 48 weeks): 1
AE leading to discontinuation: Disturbance in attention, n subjects ([1]; human, in vivo, 48 weeks): 1
AE leading to discontinuation: Dizziness, n subjects ([1]; human, in vivo, 48 weeks): 2
AE leading to discontinuation: Ear and labyrinth disorders, n subjects ([1]; human, in vivo, 48 weeks): 1
AE leading to discontinuation: Eye disorders, n subjects ([1]; human, in vivo, 48 weeks): 1
AE leading to discontinuation: Gastrointestinal disorders, n subjects ([1]; human, in vivo, 48 weeks): 1
AE leading to discontinuation: General disorders and administration site conditions, n subjects ([1]; human, in vivo, 48 weeks): 0
AE leading to discontinuation: Hypoaesthesia, n subjects ([1]; human, in vivo, 48 weeks): 1
AE leading to discontinuation: Insomnia, n subjects ([1]; human, in vivo, 48 weeks): 3
AE leading to discontinuation: Malaise, n subjects ([1]; human, in vivo, 48 weeks): 0
AE leading to discontinuation: Musculoskeletal and connective tissue disorders, n subjects ([1]; human, in vivo, 48 weeks): 1
AE leading to discontinuation: Musculoskeletal discomfort, n subjects ([1]; human, in vivo, 48 weeks): 1
AE leading to discontinuation: Nausea, n subjects ([1]; human, in vivo, 48 weeks): 1
AE leading to discontinuation: Nervous system disorders, n subjects ([1]; human, in vivo, 48 weeks): 4
AE leading to discontinuation: Photophobia, n subjects ([1]; human, in vivo, 48 weeks): 1
AE leading to discontinuation: Psychiatric disorders, n subjects ([1]; human, in vivo, 48 weeks): 3
AE leading to discontinuation: Rash, n subjects ([1]; human, in vivo, 48 weeks): 1
AE leading to discontinuation: Skin and subcutaneous tissue disorders, n subjects ([1]; human, in vivo, 48 weeks): 2
AE leading to discontinuation: Tachyphrenia, n subjects ([1]; human, in vivo, 48 weeks): 1
AE leading to discontinuation: Thinking abnormal, n subjects ([1]; human, in vivo, 48 weeks): 0
AE leading to discontinuation: Tinnitus, n subjects ([1]; human, in vivo, 48 weeks): 1
Any AE leading to discontinuation of study drug, n subjects ([1]; human, in vivo, 48 weeks): 6
Any AE, n subjects ([1]; human, in vivo, 48 weeks): 27
Any Grade 3 AE, n subjects ([1]; human, in vivo, 48 weeks): 3
Any Grade 4 AE, n subjects ([1]; human, in vivo, 48 weeks): 1
Any SAE, n subjects ([1]; human, in vivo, 48 weeks): 1
Grade 3 or 4 AE: Abdominal pain, n subjects ([1]; human, in vivo, 48 weeks): 0
Grade 3 or 4 AE: Blindness unilateral, n subjects ([1]; human, in vivo, 48 weeks): 0
Grade 3 or 4 AE: Corneal infection, n subjects ([1]; human, in vivo, 48 weeks): 0
Grade 3 or 4 AE: Dermatitis allergic, n subjects ([1]; human, in vivo, 48 weeks): 1
Grade 3 or 4 AE: Eye disorders, n subjects ([1]; human, in vivo, 48 weeks): 0
Grade 3 or 4 AE: Gastrointestinal disorders, n subjects ([1]; human, in vivo, 48 weeks): 0
Grade 3 or 4 AE: General disorders and administration site conditions, n subjects ([1]; human, in vivo, 48 weeks): 0
Grade 3 or 4 AE: Infections and infestations, n subjects ([1]; human, in vivo, 48 weeks): 0
Grade 3 or 4 AE: Pyrexia, n subjects ([1]; human, in vivo, 48 weeks): 0
Grade 3 or 4 AE: Skin and subcutaneous tissue disorders, n subjects ([1]; human, in vivo, 48 weeks): 1
Grade 3 or 4 AE: Tinnitus, n subjects ([1]; human, in vivo, 48 weeks): 1
SAE: Blindness unilateral, n subjects ([1]; human, in vivo, 48 weeks): 0
SAE: Corneal infection, n subjects ([1]; human, in vivo, 48 weeks): 0
SAE: Depression, n subjects ([1]; human, in vivo, 48 weeks): 1
SAE: Eye disorders, n subjects ([1]; human, in vivo, 48 weeks): 0
SAE: Gastroenteritis, n subjects ([1]; human, in vivo, 48 weeks): 0
SAE: Infections and infestations, n subjects ([1]; human, in vivo, 48 weeks): 0
SAE: Psychiatric disorders, n subjects ([1]; human, in vivo, 48 weeks): 1
Subjects who experienced a Grade ≥3 AE ([1]; human, in vivo, 48 weeks): 15%
D-dimer baseline value, mean [2]: 163 ng/mL
D-dimer baseline value, median [2]: 150 ng/mL
D-dimer change from baseline at Week 24, mean [2]: -53 ng/mL
D-dimer change from baseline at Week 24, median [2]: -26 ng/mL
D-dimer change from baseline at Week 48, mean [2]: -34 ng/mL
D-dimer change from baseline at Week 48, median [2]: 0.0 ng/mL
Fibrinogen baseline value, mean [2]: 258 mg/dL
Fibrinogen baseline value, median [2]: 245 mg/dL
Fibrinogen change from baseline at Week 24, mean [2]: -28 mg/dL
Fibrinogen change from baseline at Week 24, median [2]: -31 mg/dL
Fibrinogen change from baseline at Week 48, mean [2]: -30 mg/dL
Fibrinogen change from baseline at Week 48, median [2]: -22 mg/dL
IL-6 baseline value, mean [2]: 13.81 pg/mL
IL-6 baseline value, median [2]: 1.90 pg/mL
IL-6 change from baseline at Week 24, mean [2]: -8.72 pg/mL
IL-6 change from baseline at Week 24, median [2]: 0.00 pg/mL
IL-6 change from baseline at Week 48, mean [2]: -13.11 pg/mL
IL-6 change from baseline at Week 48, median [2]: 0.00 pg/mL
MCP-1 baseline value, mean [2]: 139 pg/mL
MCP-1 baseline value, median [2]: 122 pg/mL
MCP-1 change from baseline at Week 24, mean [2]: -44 pg/mL
MCP-1 change from baseline at Week 24, median [2]: -17 pg/mL
MCP-1 change from baseline at Week 48, mean [2]: 4.2 pg/mL
MCP-1 change from baseline at Week 48, median [2]: 33.6 pg/mL
hs-CRP baseline value, mean [2]: 0.81 mg/dL
hs-CRP baseline value, median [2]: 0.14 mg/dL
hs-CRP change from baseline at Week 24, mean [2]: -0.46 mg/dL
hs-CRP change from baseline at Week 24, median [2]: -0.01 mg/dL
hs-CRP change from baseline at Week 48, mean [2]: -0.71 mg/dL
hs-CRP change from baseline at Week 48, median [2]: -0.03 mg/dL
sCD14 (original values) baseline value, mean [2]: 2e+06 pg/mL
sCD14 (original values) baseline value, median [2]: 2.02e+06 pg/mL
sCD14 (original values) change from baseline at Week 12, mean [2]: 90000 pg/mL
sCD14 (original values) change from baseline at Week 12, median [2]: 180000 pg/mL
sCD14 (original values) change from baseline at Week 24, mean [2]: 230000 pg/mL
sCD14 (original values) change from baseline at Week 24, median [2]: 130000 pg/mL
sCD14 (original values) change from baseline at Week 32, mean [2]: 480000 pg/mL
sCD14 (original values) change from baseline at Week 32, median [2]: 170000 pg/mL
sCD14 (original values) change from baseline at Week 48, mean [2]: 640000 pg/mL
sCD14 (original values) change from baseline at Week 48, median [2]: 460000 pg/mL
